Common to all, as to test: Steady-state apparent kinetic constants with substrates
Holding throughout (format): biochemical
What all share (details): substance is the substrate

The target of one assay is T1, HvExoI W434H mutant (Hordeum vulgare, UniProt Q9XEI3, W459H).
T1 sequence (Q9XEI3 26-630 W459H): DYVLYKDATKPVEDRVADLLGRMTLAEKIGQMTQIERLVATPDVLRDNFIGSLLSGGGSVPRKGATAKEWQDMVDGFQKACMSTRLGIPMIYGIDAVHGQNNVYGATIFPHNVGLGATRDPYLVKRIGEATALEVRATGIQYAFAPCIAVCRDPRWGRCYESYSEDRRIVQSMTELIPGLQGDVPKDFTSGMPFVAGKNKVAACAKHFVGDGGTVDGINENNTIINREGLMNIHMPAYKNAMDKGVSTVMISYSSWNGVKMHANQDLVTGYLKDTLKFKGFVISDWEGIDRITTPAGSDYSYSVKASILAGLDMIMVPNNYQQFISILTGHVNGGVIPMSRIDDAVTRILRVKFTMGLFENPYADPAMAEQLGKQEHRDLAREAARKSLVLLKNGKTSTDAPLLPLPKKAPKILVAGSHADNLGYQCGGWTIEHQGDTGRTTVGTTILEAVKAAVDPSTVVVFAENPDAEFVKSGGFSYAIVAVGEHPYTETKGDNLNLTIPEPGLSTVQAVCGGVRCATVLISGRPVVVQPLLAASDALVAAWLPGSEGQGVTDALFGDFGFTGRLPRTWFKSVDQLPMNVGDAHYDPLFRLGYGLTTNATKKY
Here is the method: (§1) Dependency of activities of WT and mutant HvExoI on pH (McIlvaine buffers in the pH range of 3.5–8.5 at 30 °C) and temperature (100 mM sodium acetate buffer, pH 5.25, temperature range 0–80 °C, 15 min incubations) were determined using 0.2% (w/v) 4NP-Glc[21],[59]. Relative rates of hydrolysis of β-linked poly-, oligosaccharides, and aryl-glucosides were determined using near-homogenous HvExoI at 50 pmoles. […] Kinetic parameters were calculated from the analyses of Michaelis-Menten plots with Grafit 7.0.3[62] and processed by a proportional weighted fit, using nonlinear regression. The relative rates of hydrolysis, kinetic, and inhibition data were rounded to one or two decimal points (Supplementary Tables 2–4).

Another assay deals with T2, HvExoI W434Y mutant (Hordeum vulgare, UniProt Q9XEI3, W459Y).
T2 sequence (Q9XEI3 26-630 W459Y): T1 sequence (Q9XEI3 26-630 W459H) with H434Y
As for the experimental part: as §1

For another assay, the target named is T3, HvExoI W286Y mutant (Hordeum vulgare, UniProt Q9XEI3, W311Y).
T3 sequence (Q9XEI3 26-630 W311Y): T1 sequence (Q9XEI3 26-630 W459H) with W286Y, H434W
As for the experimental part:
as §1

Broadly, the Km is the concentration of substrate that gives half-maximal velocity. One may read the kcat as the number of substrate molecules converted per active site and unit of time at saturation.

Where a chain is given by its changes, count along the chain named.

Regarding laminarin, the Km worked out at 300 ± 20 µM on HvExoI W434H mutant, 100 ± 10 µM on HvExoI W434Y mutant and 100 ± 10 µM on HvExoI W286Y mutant. Further, the kcat was found to be 8.5 ± 0.9 s⁻¹ on HvExoI W434H mutant, 0.8 ± 0.1 s⁻¹ at HvExoI W434Y mutant and 30.3 ± 2.4 s⁻¹ on HvExoI W286Y mutant.

The values are drawn from PMC9508125, “The evolutionary advantage of an aromatic clamp in plant family 3 glycoside exo-hydrolases” (Nature Communications, 2022).
